The values that follow come from patent EP0463212A1, “Imidazo[2,1-b]thiazole compound anti-ulcer agent containing the same” (NIKKEN CHEMICALS CO., LTD., priority 1990, dated 1992).

The subject of data set [1] is aspirin-induced ulcer. Briefly: Antiulcer activity against aspirin-induced ulcer model. In kind it is in vivo, Wistar strain male rats. The following applies: 100 mg/kg oral, 30 min before aspirin 200 mg/kg oral; for Ulcer index: stomach excised 7 hours after aspirin, rats fasted 24 hours; for Inhibition rate: versus control group. The protocol: Antiulcer activity against aspirin-induced ulcer model
A suspension of each test compound in 5% gum arabic aqueous solution was orally given to Wistar strain male rats (at the age of 7 to 8 weeks, weighing 180 to 227 g; 7-8 rats in the group administered with the test compound; 14-16 rats in the control group) fasted for 24 hours at a dose of 100 mg of the test compound/5 ml/kg. Thirty minutes after administration, aspirin was further orally administered at a dose of 200 mg/kg. Seven hours after administration of aspirin, stomach was excised under ethereal anesthesia and spotted and linear erosion and a long diameter of ulcer were microscopically measured to determine an ulcer index and an inhibition rate.
(§1) In the control group, 5% gum arabic aqueous solution was orally administered at a dose of 5 ml/kg.

Data set [2] concerns water-immersion stress ulcer. Description: Antiulcer activity against water-immersion stress ulcer model. In kind it is in vivo, Wistar strain male rats. The following applies: 100 mg/kg oral; for Ulcer index: 30 min before water immersion at 22 ± 1°C, stress load for 6 hours; for Inhibition rate: 30 min before water immersion stress for 6 hours, versus control group. The protocol:
Antiulcer activity against water-immersion stress ulcer model
A suspension of each test compound in 5% gum arabic aqueous solution was orally given to Wistar strain male rats (at the age of 7 to 8 weeks, weighing 191 to 238 g; 7-8 rats in the group administered with the test compound; 14-16 rats in the control group) fasted for 24 hours at a dose of 100 mg of the test compound/5 ml/kg. Thirty minutes after administration, the animal was immersed up to the xiphisternum in water bath at 22 ± 1°C using a stress cage made by Tokyo University, Faculty of Pharmacology to apply a stress load for 6 hours. After applying the stress load, the rats had the cervical vertebra dislocated to death. Then, the stomach was excised and, spotted and linear erosion and a long diameter of ulcer were microscopically measured to determine an ulcer index and an inhibition rate.
as §1

Data set [3] has as its system gastric juice secretion. Description: Gastric juice secretion inhibition activity (pyloric ligature). It is filed as in vivo, Wistar strain male rats. Conditions: 100 mg/kg oral; for Gastric juice (pH) / Free HCℓ / Pepsin output / Total acidity: four hours after; for Free HCℓ: Töpfer reagent; for Pepsin output: casein as substrate; for Total acidity: phenolphthalein reagent; for Gastric juice: gastric juice collected four hours after. The protocol: Gastric juice secretion inhibition activity
A suspension of each test compound in 5% gum arabic aqueous solution was orally given to Wistar strain male rats (at the age of 7 to 8 weeks, weighing 192 to 241 g; 7-9 rats in the group administered with the test compound; 15 rats in the control group) fasted for 24 hours at a dose of 100 mg of the test compound/5 ml/kg. Thirty minutes after administration (the compounds of Examples 3 and 4) or 60 minutes after administration (the compounds of Examples 1, 2, 5, 6 and 7), pyloric ligature was made under ethereal anesthesia. Four hours after, the stomach was excised under ethereal anesthesia to collect gastric juice. The collected gastric juice was centrifuged (2500 rpm) at 4°C for 10 minutes. After the supernatant was collected, an amount of the gastric juice and its pH were measured using a pH meter. Furthermore, an amount of free hydrochloric acid and the total acidity were measured with Töpfer reagent and phenolphthalein reagent, respectively. Using a part of the gastric juice, pepsin output in the gastric juice was measured using casein as substrate in a manner similar to the method of Anson et al.
as §1

In data set [4] the test system is SLC-ICR or SLC-ddy strain male mice. Briefly: Acute toxicity. It is filed as in vivo. Conditions: oral, once, observed for 7 days. As to the method:
A suspension of each test compound in 5% gum arabic aqueous solution was orally given to SLC-ICR or SLC-ddy strain male mice (at the age of 6 to 7 weeks, weighing 26.6 to 33.6 g; 3-8 mice in one group) forcedly once at a dose of 500 mg and 1,000mg of the test compound/5mℓ/kg. For 7 days after the administration, the mice were observed whether they were dead or alive.

[5] abbreviates: pyloric ligature 60 minutes after administration.
[6] abbreviates: pyloric ligature 30 minutes after administration.

Each structure is given as a SMILES string.

In data set [1], `Cc1nc2scc(C)n2c1CO` [Ex. 1, 3,6-dimethyl-5-hydroxymethylimidazo[2,1-b]thiazole] had a Ulcer index of 38.6 ± 7.9 mm and an Inhibition rate of 45.6%. In data set [2], this molecule came in with a Ulcer index of 2.6 ± 0.9 mm and an Inhibition rate of 89.0%. Besides, in data set [3] (setting [5]), the “Gastric juice (pH)” value is 2.02 ± 0.31 pH, the “Free HCℓ” value is on record as 33.9 ± 14.9 mcEq/100g, the Pepsin output was 12.0 ± 1.6 mg of tyrosine/100g and the Total acidity was found to be 70.6 ± 17.4 mcEq/100g. The same molecule yielded a Gastric juice in data set [3] (setting [5]) of 1.12 ± 0.18 mℓ/100g. Besides, in data set [4] (500 mg/kg), the “Mortality rate (No. of death/No. of treated)” value is recorded as 0/5. Moreover, the “Mortality rate (No. of death/No. of treated)” value in data set [4] (1000 mg/kg) is 1/5.
On to `CCCCc1sc2nc(C)c(CO)n2c1C` [Ex. 2, 2-butyl-3,6-dimethyl-5-hydroxymethylimidazo[2,1-b]thiazole], for which, in data set [1], the Ulcer index is 52.7 ± 7.8 mm and the Inhibition rate is on record as 25.7%. For the same molecule, in data set [2], the Ulcer index worked out at 13.3 ± 3.9 mm and the Inhibition rate came out at 43.9%. In data set [3] (setting [5]), the “Gastric juice (pH)” value came out at 1.29 ± 0.08 pH, the “Free HCℓ” value is 111.0 ± 36.3 mcEq/100g, the Pepsin output was 15.9 ± 2.1 mg of tyrosine/100g and the Total acidity amounted to 147.2 ± 37.4 mcEq/100g. The molecule further displayed a Gastric juice in data set [3] (setting [5]) of 1.63 ± 0.28 mℓ/100g. The “Mortality rate (No. of death/No. of treated)” value in data set [4] (500 mg/kg) is listed as 0/5. In addition, in data set [4] (1000 mg/kg), the “Mortality rate (No. of death/No. of treated)” value is given as 0/5.
For `Cc1nc2sccn2c1C(O)c1ccccc1` (stereo not shown) [Ex. 3, 5-(hydroxy-phenyl)-methyl-6-methyl-imidazo[2,1-b]thiazole], in data set [1], the Ulcer index stood at 31.7 ± 5.9 mm and the Inhibition rate is listed as 44.8%. Further, in data set [2], the Ulcer index is given as 3.6 ± 2.0 mm and the Inhibition rate is 83.3%. Moreover, in data set [3] (setting [6]), the “Gastric juice (pH)” value worked out at 1.66 ± 0.09 pH, the “Free HCℓ” value is listed as 35.1 ± 5.0 mEq/l, the Pepsin output is listed as 157.7 ± 17.6 units/hr and the Total acidity was determined as 66.6 ± 4.7 mEq/l. The Gastric juice in data set [3] (setting [6]) was 6.4 ± 0.7 mL. The “Mortality rate (No. of death/No. of treated)” value in data set [4] (500 mg/kg) is 2/6. Moreover, the “Mortality rate (No. of death/No. of treated)” value in data set [4] (1000 mg/kg) is on record as 3/3.
In data set [1], `Cc1nc2sccn2c1C(C)O` (stereo not shown) [Ex. 5, 5-(1-hydroxyethyl)-6-methylimidazo[2,1-b]-thiazole] had a Ulcer index of 29.6 ± 6.8 mm and an Inhibition rate of 58.3%. For the same molecule, in data set [2], the Ulcer index was determined as 19.5 ± 5.8 mm and the Inhibition rate is listed as 17.7%. In data set [3] (setting [5]), the “Gastric juice (pH)” value was 1.48 ± 0.11 pH, the “Free HCℓ” value is 68.4 ± 19.6 mcEq/100g, the Pepsin output was 16.6 ± 2.2 mg of tyrosine/100g and the Total acidity came out at 117.0 ± 20.8 mcEq/100g. This molecule registered a Gastric juice in data set [3] (setting [5]) of 1.41 ± 0.15 mℓ/100g. In addition, in data set [4] (500 mg/kg), the “Mortality rate (No. of death/No. of treated)” value was 2/5. Further, the “Mortality rate (No. of death/No. of treated)” value in data set [4] (1000 mg/kg) is given as 3/5.
As to `CCCCc1sc2nc(C)c(C(O)CCC)n2c1C` (stereo not shown) [Ex. 6, 2-butyl-3,6-dimethyl-5-(1-hydroxybutyl)-imidazo[2,1-b]thiazole], in data set [1], the Ulcer index stood at 37.5 ± 7.4 mm and the Inhibition rate is listed as 47.1%. In data set [2], this molecule came in with a Ulcer index of 18.8 ± 4.7 mm and an Inhibition rate of 20.7%. For the same molecule, in data set [3] (setting [5]), the “Gastric juice (pH)” value turned out to be 1.36 ± 0.17 pH, the “Free HCℓ” value worked out at 132.7 ± 33.8 mcEq/100g, the Pepsin output was 21.6 ± 2.7 mg of tyrosine/100g and the Total acidity is 172.6 ± 36.5 mcEq/100g. In data set [3] (setting [5]), this molecule returned a Gastric juice of 2.00 ± 0.27 mℓ/100g. The “Mortality rate (No. of death/No. of treated)” value in data set [4] (500 mg/kg) is listed as 0/5. For the same molecule, the “Mortality rate (No. of death/No. of treated)” value in data set [4] (1000 mg/kg) is 0/5.
